Test results as given in US10894797B2, “Fused tricyclic ring derivatives as SRC homology-2 phosphatase inhibitors” (Nikang Therapuetics, Inc., priority 2018, dated 2021).

Molecular target: SHP2 (Homo sapiens (Human), UniProt Q06124)
Assay: SHP2 allosteric inhibition assay (DiFMUP substrate, bisphos-IRS1 peptide activation)
Format: biochemical
Settings: 0.33 nM SHP2, 0.5 μM bisphos-IRS1 peptide, 100 uM DiFMUP, room temperature
Description: At the basal state, SHP2 is auto-inhibited and access of substrates to the catalytic site is blocked by the […] interactions between the SH2 domains and the PTP domain. When bis-tyrosyl-phosphorylated peptides bind to SH2 domain of SHP2, the PTP domain becomes available for substrate recognition and reaction catalysis and SHP2 is allosterically activated. SHP2 catalytic activity can be measured using a fluorogenic artificial substrate DiFMUP.
The phosphatase reactions were carried out at room temperature in 384-well black polystyrene plates (Greiner Bio-One, Cat #784076) using assay buffers containing 60 mM HEPES, pH 7.2, 75 mM NaCl, 75 mM KCl, 1 mM EDTA, 0.05% P-20, and 5 mM DTT.
0.33 nM of SHP2 was co-incubated with of 0.5 μM of bisphos-IRS 1 peptide (sequence: H2N-LN(pY)IDLDLV(dPEG8)LST(pY)ASINFQK-amide) and various concentrations of compounds for 30-60 min at room temperature. Then the reaction was initiated by addition of the surrogate substrate DiFMUP (Invitrogen, Cat #D6567, 100 uM final).
The real-time conversion of DiFMUP to DiFMU (6,8-difluoro-7-hydroxyl-4-methyl-coumarin) was measured every 5 min for 30 min using a microplate reader (CLARIOstar, BMG Labtech) with excitation and emission wavelengths of 340 nm and 450 nm, respectively. Initial reaction rates were determined by linear fitting of the data and the inhibitor dose response curves were analyzed using normalized IC50 regression curve fitting with control-based normalization.

Chain of SHP2 (Q06124 whole entry): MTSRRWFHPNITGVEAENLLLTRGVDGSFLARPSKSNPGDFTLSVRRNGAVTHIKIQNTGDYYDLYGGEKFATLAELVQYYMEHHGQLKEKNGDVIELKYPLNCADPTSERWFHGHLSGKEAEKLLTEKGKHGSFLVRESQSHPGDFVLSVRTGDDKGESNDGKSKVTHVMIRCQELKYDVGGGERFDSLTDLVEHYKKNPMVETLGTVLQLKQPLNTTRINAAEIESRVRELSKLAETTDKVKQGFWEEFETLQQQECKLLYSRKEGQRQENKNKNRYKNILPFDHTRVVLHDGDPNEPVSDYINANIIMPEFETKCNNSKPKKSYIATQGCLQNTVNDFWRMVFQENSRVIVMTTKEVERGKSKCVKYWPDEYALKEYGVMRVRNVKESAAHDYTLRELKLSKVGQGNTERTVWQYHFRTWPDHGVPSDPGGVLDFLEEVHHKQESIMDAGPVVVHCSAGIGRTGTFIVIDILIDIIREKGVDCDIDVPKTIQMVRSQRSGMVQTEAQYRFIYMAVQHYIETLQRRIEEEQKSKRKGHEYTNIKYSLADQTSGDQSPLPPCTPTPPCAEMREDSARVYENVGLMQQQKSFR

| Structure (SMILES) | Shp2 IC50(nM) | IC50 [nM] |
| --- | --- | --- |
| C[C@@H]1OCC2(CCN(c3ncc(Sc4ccnc5c4OC[C@@H]4C[C@](C)(O)CN54)nc3CO)CC2)[C@@H]1N (single isomer, unassigned) [Compound 18] | one of 21 and 22 is 13 and the other is 8 | – |
| C[C@@H]1OCC2(CCN(c3ncc(Sc4ccnc5c4OC[C@@H]4C[C@@](C)(O)CN54)nc3CO)CC2)[C@@H]1N (single isomer, unassigned) [Compound 19] | one of 21 and 22 is 13 and the other is 8 | – |
| C[C@@H]1OCC2(CCN(c3ncc(Sc4ccnc5c4OC[C@@H]4CCCN54)nc3CO)CC2)[C@@H]1N [Compound 1, (3-((3S,4S)-4-amino-3-methyl-2-oxa-8-azaspiro[4.5]decan-8-yl)-6-(((S)-6a,7,8,9-tetrahydro-6H-pyrido[3,2-b]pyrrolo[1,2-d][1,4]oxazin-4-yl)thio)pyrazin-2-yl)methanol] | – | 3 |
| C[C@@H]1OCC2(CCN(c3ncc(Sc4ccnc5c4OC[C@H]4CCCN54)nc3CO)CC2)[C@@H]1N [Compound 2, (3-((3S,4S)-4-amino-3-methyl-2-oxa-8-azaspiro[4.5]decan-8-yl)-6-(((R)-6a,7,8,9-tetrahydro-6H-pyrido[3,2-b]pyrrolo[1,2-d][1,4]oxazin-4-yl)thio)pyrazin-2-yl)methanol] | – | 4 |
| C[C@@H]1OCC2(CCN(c3ncc(Sc4ccnc5c4OC[C@@H]4C[C@H](F)CN54)nc3CO)CC2)[C@@H]1N [Compound 3, (3-((3S,4S)-4-amino-3-methyl-2-oxa-8-azaspiro[4.5]decan-8-yl)-6-(((6aS,8S)-8-fluoro-6a,7,8,9-tetrahydro-6H-pyrido[3,2-b]pyrrolo[1,2-d][1,4]oxazin-4-yl)thio)pyrazin-2-yl)methanol] | – | 13 |
| C[C@@H]1OCC2(CCN(c3ncc(Sc4ccnc5c4OC[C@@H]4C[C@@H](F)CN54)nc3CO)CC2)[C@@H]1N [Compound 4, (3-((3S,4S)-4-amino-3-methyl-2-oxa-8-azaspiro[4.5]decan-8-yl)-6-(((6aS,8R)-8-fluoro-6a,7,8,9-tetrahydro-6H-pyrido[3,2-b]pyrrolo[1,2-d][1,4]oxazin-4-yl)thio)pyrazin-2-yl)methanol] | – | 5 |
| CO[C@H]1C[C@H]2COc3c(Sc4cnc(N5CCC6(CC5)CO[C@@H](C)[C@H]6N)c(CO)n4)ccnc3N2C1 [Compound 5, (3-((3S,4S)-4-amino-3-methyl-2-oxa-8-azaspiro[4.5]decan-8-yl)-6-(((6aS,8S)-8-methoxy-6a,7,8,9-tetrahydro-6H-pyrido[3,2-b]pyrrolo[1,2-d][1,4]oxazin-4-yl)thio)pyrazin-2-yl)methanol] | – | 8 |
| CO[C@@H]1C[C@H]2COc3c(Sc4cnc(N5CCC6(CC5)CO[C@@H](C)[C@H]6N)c(CO)n4)ccnc3N2C1 [Compound 6, (3-((3S,4S)-4-amino-3-methyl-2-oxa-8-azaspiro[4.5]decan-8-yl)-6-(((6aS,8R)-8-methoxy-6a,7,8,9-tetrahydro-6H-pyrido[3,2-b]pyrrolo[1,2-d][1,4]oxazin-4-yl)thio)pyrazin-2-yl)methanol] | – | 6 |
| C[C@@H]1OCC2(CCN(c3ncc(Sc4ccnc5c4OC[C@@H]4C[C@H](O)CN54)nc3CO)CC2)[C@@H]1N [Compound 7, (6aS,8S)-4-((5-((3S,4S)-4-amino-3-methyl-2-oxa-8-azaspiro[4.5]decan-8-yl)-6-(hydroxymethyl)pyrazin-2-yl)thio)-6a,7,8,9-tetrahydro-6H-pyrido[3,2-b]pyrrolo[1,2-d][1,4]oxazin-8-ol] | – | 6 |
| C[C@@H]1OCC2(CCN(c3ncc(Sc4ccnc5c4OC[C@@H]4C[C@@H](O)CN54)nc3CO)CC2)[C@@H]1N [Compound 8, (6aS,8R)-4-((5-((3 S,4S)-4-amino-3-methyl-2-oxa-8-azaspiro[4.5]decan-8-yl)-6-(hydroxymethyl)pyrazin-2-yl)thio)-6a,7,8,9-tetrahydro-6H-pyrido[3,2-b]pyrrolo[1,2-d][1,4]oxazin-8-ol] | – | 8 |
| CO[C@@H]1C[C@@H]2COc3c(Sc4cnc(N5CCC6(CC5)CO[C@@H](C)[C@H]6N)c(CO)n4)ccnc3N2C1 [Compound 9, (3-((3S,4S)-4-amino-3-methyl-2-oxa-8-azaspiro[4.5]decan-8-yl)-6-(((6aR,8R)-8-methoxy-6a,7,8,9-tetrahydro-6H-pyrido[3,2-b]pyrrolo[1,2-d][1,4]oxazin-4-yl)thio)pyrazin-2-yl)methanol] | – | 8 |
| CO[C@H]1C[C@@H]2COc3c(Sc4cnc(N5CCC6(CC5)CO[C@@H](C)[C@H]6N)c(CO)n4)ccnc3N2C1 [Compound 10, (3-((3S,4S)-4-amino-3-methyl-2-oxa-8-azaspiro[4.5]decan-8-yl)-6-(((6aR,8S)-8-methoxy-6a,7,8,9-tetrahydro-6H-pyrido[3,2-b]pyrrolo[1,2-d][1,4]oxazin-4-yl)thio)pyrazin-2-yl)methanol] | – | 10 |
| C[C@@H]1OCC2(CCN(c3ncc(Sc4ccnc5c4OC[C@@H]4C[C@H](O[C@H]6CCOC6)CN54)nc3CO)CC2)[C@@H]1N [Compound 11, (3-((3S,4S)-4-amino-3-methyl-2-oxa-8-azaspiro[4.5]decan-8-yl)-6-(((6aS,8S)-8-(((S)-tetrahydrofuran-3-yl)oxy)-6a,7,8,9-tetrahydro-6H-pyrido[3,2-b]pyrrolo[1,2-d][1,4]oxazin-4-yl)thio)pyrazin-2-yl)methanol] | – | 14 |
| C[C@@H]1OCC2(CCN(c3ncc(Sc4ccnc5c4OC[C@@H]4C[C@H](O[C@@H]6CCOC6)CN54)nc3CO)CC2)[C@@H]1N [Compound 12, (3-((3S,4S)-4-amino-3-methyl-2-oxa-8-azaspiro[4.5]decan-8-yl)-6-(((6aS,8S)-8-(((R)-tetrahydrofuran-3-yl)oxy)-6a,7,8,9-tetrahydro-6H-pyrido[3,2-b]pyrrolo[1,2-d][1,4]oxazin-4-yl)thio)pyrazin-2-yl)methanol] | – | 12 |
| C[C@@H]1OCC2(CCN(c3ncc(Sc4ccnc5c4OC[C@@H]4C[C@H](OC6COC6)CN54)nc3CO)CC2)[C@@H]1N [Compound 13, (3-((3S,4S)-4-amino-3-methyl-2-oxa-8-azaspiro[4.5]decan-8-yl)-6-(((6aS,8S)-8-(oxetan-3-yloxy)-6a,7,8,9-tetrahydro-6H-pyrido[3,2-b]pyrrolo[1,2-d][1,4]oxazin-4-yl)thio)pyrazin-2-yl)methanol] | – | 8 |
| COCO[C@H]1C[C@H]2COc3c(Sc4cnc(N5CCC6(CC5)CO[C@@H](C)[C@H]6N)c(CO)n4)ccnc3N2C1 [Compound 14, (3-((3S,4S)-4-amino-3-methyl-2-oxa-8-azaspiro[4.5]decan-8-yl)-6-(((6aS,8S)-8-(methoxymethoxy)-6a,7,8,9-tetrahydro-6H-pyrido[3,2-b]pyrrolo[1,2-d][1,4]oxazin-4-yl)thio)pyrazin-2-yl)methanol] | – | 5 |
| COCCO[C@H]1C[C@H]2COc3c(Sc4cnc(N5CCC6(CC5)CO[C@@H](C)[C@H]6N)c(CO)n4)ccnc3N2C1 [Compound 15, (3-((3S,4S)-4-amino-3-methyl-2-oxa-8-azaspiro[4.5]decan-8-yl)-6-(((6aS,8S)-8-(2-methoxyethoxy)-6a,7,8,9-tetrahydro-6H-pyrido[3,2-b]pyrrolo[1,2-d][1,4]oxazin-4-yl)thio)pyrazin-2-yl)methanol] | – | 10 |
| C[C@@H]1OCC2(CCN(c3ncc(Sc4ccnc5c4OC[C@@H]4C[C@H](OCC6CC6)CN54)nc3CO)CC2)[C@@H]1N [Compound 16, (3-((3S,4S)-4-amino-3-methyl-2-oxa-8-azaspiro[4.5]decan-8-yl)-6-(((6aS,8S)-8-(cyclopropylmethoxy)-6a,7,8,9-tetrahydro-6H-pyrido[3,2-b]pyrrolo[1,2-d][1,4]oxazin-4-yl)thio)pyrazin-2-yl)methanol] | – | 3 |
| C[C@@H]1OCC2(CCN(c3ncc(Sc4ccnc5c4OC[C@@H]4CC6(CC6)CN54)nc3CO)CC2)[C@@H]1N [Compound 17, (3-((3S,4S)-4-amino-3-methyl-2-oxa-8-azaspiro[4.5]decan-8-yl)-6-(((S)-6a′,7′-dihydro-6′H,9′H-spiro[cyclopropane-1,8′-pyrido[3,2-b]pyrrolo[1,2-d][1,4]oxazin]-4′-yl)thio)pyrazin-2-yl)methanol] | – | 2 |
| C[C@@H]1OCC2(CCN(c3ncc(Sc4ccnc5c4OC[C@@H]4C[C@H](C#N)CN54)nc3CO)CC2)[C@@H]1N [Compound 20, (6aS,8S)-4-((5-((3S,4S)-4-amino-3-methyl-2-oxa-8-azaspiro[4.5]decan-8-yl)-6-(hydroxymethyl)pyrazin-2-yl)thio)-6a,7,8,9-tetrahydro-6H-pyrido[3,2-b]pyrrolo[1,2-d][1,4]oxazine-8-carbonitrile] | – | 11 |
| C[C@@H]1OCC2(CCN(c3ncc(Sc4ccnc5c4OC[C@@H]4C[C@H](S(C)(=O)=O)CN54)nc3CO)CC2)[C@@H]1N [Compound 21, (3-((3S,4S)-4-amino-3-methyl-2-oxa-8-azaspiro[4.5]decan-8-yl)-6-(((6aS,8S)-8-(methylsulfonyl)-6a,7,8,9-tetrahydro-6H-pyrido[3,2-b]pyrrolo[1,2-d][1,4]oxazin-4-yl)thio)pyrazin-2-yl)methanol] | – | 13 |
